Common to all, as to assay type: biochemical
Experiment [1] deals with T1, soybean peroxidase (Glycine max, UniProt O22443).
T1 construct: secreted heme glycoprotein, reported 37 kDa
Description: N-demethylation of N,N-dimethylanthranilic acid methyl ester by soybean peroxidase. Here is the method:
N,N-Dimethylanthranilic acid methyl ester (DMA) and the product of N-demethylation, N-methylanthranilic acid methyl ester (NMA), were purchased from TCI America (Portland, Oreg.). […] Using 1 g. (5mM) DMA in 25 mM acetate, pH 4.5, 120 ppu SBP and 1 mM H202, the increases observed were: 295 nm - 0.727 AU per min; 379 nm -0.403 AU per min. To optimize N-demethylation, the effect of pH was studied using 25 mM buffers at the appropriate pH.

The target in experiment [2] is T1, soybean peroxidase. As to the kind of experiment: Chlorination of dimedone to 2-chlorodimedone catalyzed by soybean peroxidase. To be noted: for Absorbance Units at 307 nm: pH 2, 120 ppu SBP, 1 mM H2O2, room temperature. Here is the method:
A stock solution (9.5 mM dimedone) was prepared by adding 1 g. 5,5-dimethyl-1,3-cyclohexane dione (dimedone) to […]. The solution was stirred to dissolve the dimedone and the pH adjusted to 2 with HCl. Chlorination of dimedone was catalyzed by soybean peroxidase (120 ppu) at pH 2 and 1 mM H2 O2. Increase in absorbance at 307 nm, corresponding to the absorbance maximum of 2-chlorodimedone was followed at room temperature and is shown in Table 9.
The effect of temperature on cholrination of dimedone was studied under these conditions. Reactions were performed as described above with increasing assay temperature.

The target in experiment [3] is T1, soybean peroxidase. Description: Oxidation of veratryl alcohol to veratryl aldehyde by soybean peroxidase and hydrogen peroxide, absorbance at 308 nm. Here is the method:
Preparation of Soybean Peroxidase Solution: Purified soybean peroxidase was lyophilized to give a powder at 120 purpurogallin units (as defined by Sigma) per mg. Purification was done with addition of 5 mM CaCl2, but without buffers or other non-volatile substances which would carry over with the enzyme in the powder. Lyophilization typically yielded 4.5 g from 60 ml. […] Using the extinction coefficient reported for heme in HRP ([…] at 403 nm in 0.1M Tris pH 7), and the reported molecular weight of SBP (37,000), the solid was 60% peroxidase by weight.
Preparation of peroxide stock solution: 1.5 ml of 30% hydrogen peroxide was diluted to 100 ml with water to provide a 0,147M stock solution of hydrogen peroxide.
0.1 ml soybean peroxidase (120 purpurogallin units/ml) stock solution was added to 3 ml veratryl alcohol solution (1 g veratryl alcohol in 750 ml water) and vortexed in a test tube. 20 μl peroxide stock solution was added, mixed and the solution poured into a 1 cm path, 4 ml quartz cuvette. Using a Shimadzu UV-160 double beam recording spectophotometer, the change in absorbance of the sample compared to a reference cuvette containing 3 ml veratryl alcohol solution only was monitored every minute by scanning wavelengths from 500 to 200 nm. The peak wavelength of 308 nm was identified as veratryl aldehyde and was used for further monitoring. The kinetics of the reaction were determined from the linear portion of the increase in absorbance.
To determine the effects of pH on the oxidation of veratryl alcohol, a veratryl alcohol stock solution containing 20 mM CaCl2 was divided into 9 samples and each sample treated with HCl to provide 9 samples ranging in pH from 1.25 to 3.3 ml of solution was withdrawn from each sample and the change in absorbance (dA) of veratryl alcohol in each sample was measured at 308 nm at room temperature.
To determine the effects of temperature on veratryl alcohol oxidation at a pH of 2, 5 samples of a veratryl alcohol stock solution without CaCl2 were obtained and the absorbance of veratryl alcohol was measured at varying temperatures. The samples were incubated in a circulating water bath and cuvette blocks were preheated by connection with the same bath. The test cuvette was left empty in the block to equilibrate prior to assay. Enzyme and peroxide stock solutions were stored at room temperature. Assay was initiated by pouring the alcohol solution into the cuvette, adding 0.1 ml enzyme, inverting, adding 20 ul peroxide, inverting, and immediately starting to record change in absorbance.

The values that follow come from patent publication US5508180A, “Biocatalytic oxidation using soybean peroxidase” (Enzymol International, Inc., priority 1994, dated 1996).

SMILES strings stand for the structures.

T1 sequence (O22443 27-332): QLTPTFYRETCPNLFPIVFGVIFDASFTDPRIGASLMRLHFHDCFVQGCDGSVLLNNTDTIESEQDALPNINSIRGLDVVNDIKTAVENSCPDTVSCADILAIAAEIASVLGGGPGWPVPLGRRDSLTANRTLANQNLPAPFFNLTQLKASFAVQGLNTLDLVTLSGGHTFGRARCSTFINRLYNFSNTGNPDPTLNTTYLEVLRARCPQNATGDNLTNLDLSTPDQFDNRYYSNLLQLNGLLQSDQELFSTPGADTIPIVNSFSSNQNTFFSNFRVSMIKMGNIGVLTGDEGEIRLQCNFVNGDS

`COC(=O)c1ccccc1N(C)C` [DMA, N,N-Dimethylanthranilic acid methyl ester]: the “increase in absorbance at 295 nm” value on soybean peroxidase [1] (5mM DMA, 25 mM acetate pH 4.5, 120 ppu SBP, 1 mM H2O2) was 0.727 AU per min. The “dA per min at 379 nm” value at soybean peroxidase [1] (pH 1, 25 mM buffer) stood at 0.005; at soybean peroxidase [1] (pH 2, 25 mM buffer) it was 0.2603; on soybean peroxidase [1] (pH 3, 25 mM buffer) it was 0.099; at soybean peroxidase [1] (pH 4, 25 mM buffer), 0.181; on soybean peroxidase [1] (pH 5, 25 mM buffer) it was 0.2401; at soybean peroxidase [1] (pH 6, 25 mM buffer) it was 0.1095. Besides, at soybean peroxidase [1] (pH 7, 25 mM buffer), the “dA per min at 379 nm” value is reported as 0.0065.
Turning to `CC1(C)CC(=O)CC(=O)C1` [dimedone, 5,5-dimethyl-1,3-cyclohexane dione], the “dA per min at 307 nm” value at soybean peroxidase [2] (25 °C, pH 2) stood at 0.1066; on soybean peroxidase [2] (35 °C, pH 2), 0.1204; on soybean peroxidase [2] (45 °C, pH 2) it was 0.1962; at soybean peroxidase [2] (55 °C, pH 2) it was 0.1792; on soybean peroxidase [2] (65 °C, pH 2) it was 0.0155; on soybean peroxidase [2] (75 °C, pH 2), 0.0181. Further, the “optimal temperature of oxidative chlorination” value on soybean peroxidase [2] (pH 2) was “about 45 °C”. Moreover, the “Absorbance Units at 307 nm” value is 0.175 Absorbance Units at soybean peroxidase [2] (time of reaction 0 min); 0.275 Absorbance Units at soybean peroxidase [2] (time of reaction 1 min); 0.510 Absorbance Units on soybean peroxidase [2] (time of reaction 2 min); 0.800 Absorbance Units at soybean peroxidase [2] (time of reaction 3 min); 0.868 Absorbance Units on soybean peroxidase [2] (time of reaction 7 min).
For `COc1ccc(CO)cc1OC` [veratryl alcohol, 3,4-dimethoxybenzyl alcohol], the “activity (dA per minute at 308 nm)” value at soybean peroxidase [3] (0.1M KCl/HCl buffer at pH 2) was found to be 0.2265. The “dA per minute at 308 nm” value at soybean peroxidase [3] (25 °C, pH 2, without CaCl2) is given as 1.427; on soybean peroxidase [3] (35 °C, pH 2, without CaCl2), 2.358; at soybean peroxidase [3] (45 °C, pH 2, without CaCl2), 3.17; at soybean peroxidase [3] (55 °C, pH 2, without CaCl2) it was 0.3467; at soybean peroxidase [3] (65 °C, pH 2, without CaCl2) it was 0.0018; on soybean peroxidase [3] (pH 1.25, 20 mM CaCl2, room temperature) it was 0.0045. The “dA per minute at 308 nm” value on soybean peroxidase [3] (pH 1.35, 20 mM CaCl2, room temperature) is 0.0361; on soybean peroxidase [3] (pH 1.65, 20 mM CaCl2, room temperature), 0.2358; on soybean peroxidase [3] (pH 1.85, 20 mM CaCl2, room temperature) it was 1.611; at soybean peroxidase [3] (pH 2.15, 20 mM CaCl2, room temperature), 0.945; on soybean peroxidase [3] (pH 2.35, 20 mM CaCl2, room temperature), 0.2243; on soybean peroxidase [3] (pH 2.55, 20 mM CaCl2, room temperature), 0.1093. In addition, the “dA per minute at 308 nm” value at soybean peroxidase [3] (pH 2.85, 20 mM CaCl2, room temperature) was determined as 0.0587; at soybean peroxidase [3] (pH 3, 20 mM CaCl2, room temperature), 0.0119. Besides, at soybean peroxidase [3] (veratryl alcohol oxidation), the pH optimum entry is “around 2”.
